Assay results: patent US20230158005A1 (priority 2020, published 2023)
“And” between values parts separate entries of the source, which are not always exact repeats. Identical values can stand only once.

Test system: A/Washington/29/2009 (H1N1) H275Y
Assay type: cell-based, influenza A virus

| SMILES | Virus titer AVG | Virus titer, replicates 1-3 | DIF (Difference from Control) [log10TCID50/mL] |
| --- | --- | --- | --- |
| CC1=C(COCCC(C)(C)C)C(=O)N(Nc2ccc(C(F)(F)F)c(Cl)n2)C1=O [felezonexor, 3-[(3,3-dimethylbutoxy)methyl]-1-{[6-chloro-5-(trifluoromethyl) (2-pyridyl)]amino}-4-methylazoline-2,5-dione] | 2.67 log10TCID50/mL and 3.83 log10TCID50/mL and 4.50 log10TCID50/mL | 2.75 log10TCID50/mL (2×) and 3.50 log10TCID50/mL and 4.50 log10TCID50/mL (3×) and 2.50 log10TCID50/mL and 3.75 log10TCID50/mL and 4.25 log10TCID50/mL | – |
| CCOC(=O)C1=C[C@@H](OC(CC)CC)[C@H](NC(C)=O)[C@@H](N)C1 [Oseltamivir, oseltamivir, reference compound] | 3.92 log10TCID50/mL | 3.75 log10TCID50/mL (2×) and 4.25 log10TCID50/mL | -0.92 |
